Source: article PMC9817970 (Cancers, 2022)

Key:
Assay in all cases: Kinase panel profiling
Format in all cases: biochemical
Settings in all cases: 10 μM ATP
ABL2/ARG = target: T1, ABL2/ARG (Homo sapiens, UniProt P42684)
T1 construct: purchased Reaction Biology Corp
Method: (§1) Kinase panel profiling was conducted by Reaction Biology Corp. (San Diego, CA, USA). A single dose (1.0 μM) of 6r was tested against 371 recombinant human kinases in the presence of 10 μM ATP.

Aurora A = target: T2, Aurora A (Homo sapiens, UniProt O14965)
T2 construct: purchased Reaction Biology Corp
Method: as §1

BMPR2 = target: T3, BMPR2 (Homo sapiens, UniProt Q13873)
T3 construct: purchased Reaction Biology Corp
Method: as §1

CAMK2d = target: T4, CAMK2d (Homo sapiens, UniProt Q13557)
T4 construct: purchased Reaction Biology Corp
Method: as §1

CDK1/cyclin B = target: T5, CDK1/cyclin B (Homo sapiens, UniProt P06493)
T5 construct: purchased Reaction Biology Corp
Method: as §1

CDK16/cyclin Y (PCTAIRE) = target: T6, CDK16/cyclin Y (PCTAIRE) (Homo sapiens, UniProt Q00536)
T6 construct: purchased Reaction Biology Corp
Method: as §1

EPHA2 = target: T7, EPHA2 (Homo sapiens, UniProt P29317)
T7 construct: purchased Reaction Biology Corp
Method: as §1

EPHA3 = target: T8, EPHA3 (Homo sapiens, UniProt P29320)
T8 construct: purchased Reaction Biology Corp
Method: as §1

EPHA5 = target: T9, EPHA5 (Homo sapiens, UniProt P54756)
T9 construct: purchased Reaction Biology Corp
Method: as §1

EPHA6 = target: T10, EPHA6 (Homo sapiens, UniProt Q9UF33)
T10 construct: purchased Reaction Biology Corp
Method: as §1

EPHB4 = target: T11, EPHB4 (Homo sapiens, UniProt P54760)
T11 construct: purchased Reaction Biology Corp
Method: as §1

ERK2/MAPK1 = target: T12, ERK2/MAPK1 (Homo sapiens, UniProt P28482)
T12 construct: purchased Reaction Biology Corp
Method: as §1

ERN1/IRE1 = target: T13, ERN1/IRE1 (Homo sapiens, UniProt O75460)
T13 construct: purchased Reaction Biology Corp
Method: as §1

FLT1/VEGFR1 = target: T14, FLT1/VEGFR1 (Homo sapiens, UniProt P17948)
T14 construct: purchased Reaction Biology Corp
Method: as §1

FMS = target: T15, FMS (Homo sapiens, UniProt P07333)
T15 construct: purchased Reaction Biology Corp
Method: as §1

GRK6 = target: T16, GRK6 (Homo sapiens, UniProt P43250)
T16 construct: purchased Reaction Biology Corp
Method: as §1

HIPK3 = target: T17, HIPK3 (Homo sapiens, UniProt Q9H422)
T17 construct: purchased Reaction Biology Corp
Method: as §1

HIPK4 = target: T18, HIPK4 (Homo sapiens, UniProt Q8NE63)
T18 construct: purchased Reaction Biology Corp
Method: as §1

KSR2 = target: T19, KSR2 (Homo sapiens, UniProt Q6VAB6)
T19 construct: purchased Reaction Biology Corp
Method: as §1

LIMK1 = target: T20, LIMK1 (Homo sapiens, UniProt P53667)
T20 construct: purchased Reaction Biology Corp
Method: as §1

LRRK2 = target: T21, LRRK2 (Homo sapiens, UniProt Q5S007)
T21 construct: purchased Reaction Biology Corp
Method: as §1

MNK2 = target: T22, MNK2 (Homo sapiens, UniProt Q9HBH9)
T22 construct: purchased Reaction Biology Corp
Method: as §1

MST3/STK24 = target: T23, MST3/STK24 (Homo sapiens, UniProt Q9Y6E0)
T23 construct: purchased Reaction Biology Corp
Method: as §1

MUSK = target: T24, MUSK (Homo sapiens, UniProt O15146)
T24 construct: purchased Reaction Biology Corp
Method: as §1

PAK1 = target: T25, PAK1 (Homo sapiens, UniProt Q13153)
T25 construct: purchased Reaction Biology Corp
Method: as §1

PASK = target: T26, PASK (Homo sapiens, UniProt Q96RG2)
T26 construct: purchased Reaction Biology Corp
Method: as §1

PIM1 = target: T27, PIM1 (Homo sapiens, UniProt P11309)
T27 construct: purchased Reaction Biology Corp
Method: as §1

PKCg = target: T28, PKCg (Homo sapiens, UniProt P05129)
T28 construct: purchased Reaction Biology Corp
Method: as §1

PKN3/PRK3 = target: T29, PKN3/PRK3 (Homo sapiens, UniProt Q6P5Z2)
T29 construct: purchased Reaction Biology Corp
Method: as §1

PRKX = target: T30, PRKX (Homo sapiens, UniProt P51817)
T30 construct: purchased Reaction Biology Corp
Method: as §1

RET = target: T31, RET (Homo sapiens, UniProt P07949)
T31 construct: purchased Reaction Biology Corp
Method: as §1

RIPK4 = target: T32, RIPK4 (Homo sapiens, UniProt P57078)
T32 construct: purchased Reaction Biology Corp
Method: as §1

SIK2 = target: T33, SIK2 (Homo sapiens, UniProt Q9H0K1)
T33 construct: purchased Reaction Biology Corp
Method: as §1

SNRK = target: T34, SNRK (Homo sapiens, UniProt Q9NRH2)
T34 construct: purchased Reaction Biology Corp
Method: as §1

SSTK/TSSK6 = target: T35, SSTK/TSSK6 (Homo sapiens, UniProt Q9BXA6)
T35 construct: purchased Reaction Biology Corp
Method: as §1

SYK = target: T36, SYK (Homo sapiens, UniProt P43405)
T36 construct: purchased Reaction Biology Corp
Method: as §1

TGFBR2 = target: T37, TGFBR2 (Homo sapiens, UniProt P37173)
T37 construct: purchased Reaction Biology Corp
Method: as §1

TLK2 = target: T38, TLK2 (Homo sapiens, UniProt Q86UE8)
T38 construct: purchased Reaction Biology Corp
Method: as §1

TYK2 = target: T39, TYK2 (Homo sapiens, UniProt P29597)
T39 construct: purchased Reaction Biology Corp
Method: as §1

ULK1 = target: T40, ULK1 (Homo sapiens, UniProt O75385)
T40 construct: purchased Reaction Biology Corp
Method: as §1

ULK3 = target: T41, ULK3 (Homo sapiens, UniProt Q6PHR2)
T41 construct: purchased Reaction Biology Corp
Method: as §1

YES/YES1 = target: T42, YES/YES1 (Homo sapiens, UniProt P07947)
T42 construct: purchased Reaction Biology Corp
Method: as §1

ZIPK/DAPK3 = target: T43, ZIPK/DAPK3 (Homo sapiens, UniProt O43293)
T43 construct: purchased Reaction Biology Corp
Method: as §1

T29 sequence (Q6P5Z2 whole entry): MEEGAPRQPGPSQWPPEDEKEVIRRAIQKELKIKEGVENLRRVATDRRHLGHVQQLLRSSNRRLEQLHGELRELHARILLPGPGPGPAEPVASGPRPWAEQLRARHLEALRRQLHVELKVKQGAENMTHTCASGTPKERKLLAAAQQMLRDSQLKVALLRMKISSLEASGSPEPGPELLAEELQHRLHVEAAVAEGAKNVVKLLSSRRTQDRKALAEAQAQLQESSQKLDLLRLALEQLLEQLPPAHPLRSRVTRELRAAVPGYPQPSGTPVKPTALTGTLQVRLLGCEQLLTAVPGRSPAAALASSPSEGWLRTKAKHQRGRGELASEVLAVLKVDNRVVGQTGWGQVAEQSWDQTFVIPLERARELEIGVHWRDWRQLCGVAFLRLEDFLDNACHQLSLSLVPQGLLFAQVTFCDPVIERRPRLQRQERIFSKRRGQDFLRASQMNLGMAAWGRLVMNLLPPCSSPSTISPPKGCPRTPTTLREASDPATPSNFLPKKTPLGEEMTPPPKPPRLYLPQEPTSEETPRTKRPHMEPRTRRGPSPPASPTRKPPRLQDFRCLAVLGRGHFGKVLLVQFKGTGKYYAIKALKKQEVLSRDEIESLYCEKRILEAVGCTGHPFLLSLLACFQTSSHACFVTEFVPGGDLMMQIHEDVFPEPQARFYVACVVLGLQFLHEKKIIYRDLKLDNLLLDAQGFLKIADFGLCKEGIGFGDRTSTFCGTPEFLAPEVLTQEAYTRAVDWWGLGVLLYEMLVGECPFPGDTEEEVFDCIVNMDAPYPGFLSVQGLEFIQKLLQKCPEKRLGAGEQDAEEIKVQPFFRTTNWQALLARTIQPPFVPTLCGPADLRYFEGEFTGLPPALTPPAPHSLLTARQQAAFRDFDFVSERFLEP
T37 sequence (P37173 23-567): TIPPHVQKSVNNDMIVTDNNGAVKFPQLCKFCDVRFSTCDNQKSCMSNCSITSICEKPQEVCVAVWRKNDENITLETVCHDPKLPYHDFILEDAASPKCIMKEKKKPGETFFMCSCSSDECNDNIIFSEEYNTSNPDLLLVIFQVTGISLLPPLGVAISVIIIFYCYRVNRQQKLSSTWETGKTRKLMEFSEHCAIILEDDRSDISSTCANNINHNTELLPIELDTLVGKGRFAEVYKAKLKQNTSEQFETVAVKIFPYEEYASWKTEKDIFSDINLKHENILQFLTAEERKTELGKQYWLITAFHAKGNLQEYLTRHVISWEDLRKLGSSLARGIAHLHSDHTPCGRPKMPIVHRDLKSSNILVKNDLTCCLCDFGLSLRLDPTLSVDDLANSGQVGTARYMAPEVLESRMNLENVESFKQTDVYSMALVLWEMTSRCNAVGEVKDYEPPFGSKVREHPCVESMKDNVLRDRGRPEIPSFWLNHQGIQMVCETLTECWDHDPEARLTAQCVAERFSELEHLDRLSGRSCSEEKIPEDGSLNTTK
T30 sequence (P51817 whole entry): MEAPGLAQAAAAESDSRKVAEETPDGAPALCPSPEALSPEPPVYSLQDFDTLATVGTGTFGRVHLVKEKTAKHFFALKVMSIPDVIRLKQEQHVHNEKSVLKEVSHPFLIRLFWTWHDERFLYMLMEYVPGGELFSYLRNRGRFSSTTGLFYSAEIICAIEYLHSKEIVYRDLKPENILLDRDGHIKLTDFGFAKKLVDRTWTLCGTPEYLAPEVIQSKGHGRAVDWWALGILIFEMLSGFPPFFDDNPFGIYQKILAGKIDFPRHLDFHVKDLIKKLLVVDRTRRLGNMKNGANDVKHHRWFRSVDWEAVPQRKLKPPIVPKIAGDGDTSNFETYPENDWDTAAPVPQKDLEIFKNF
T21 sequence (Q5S007 whole entry): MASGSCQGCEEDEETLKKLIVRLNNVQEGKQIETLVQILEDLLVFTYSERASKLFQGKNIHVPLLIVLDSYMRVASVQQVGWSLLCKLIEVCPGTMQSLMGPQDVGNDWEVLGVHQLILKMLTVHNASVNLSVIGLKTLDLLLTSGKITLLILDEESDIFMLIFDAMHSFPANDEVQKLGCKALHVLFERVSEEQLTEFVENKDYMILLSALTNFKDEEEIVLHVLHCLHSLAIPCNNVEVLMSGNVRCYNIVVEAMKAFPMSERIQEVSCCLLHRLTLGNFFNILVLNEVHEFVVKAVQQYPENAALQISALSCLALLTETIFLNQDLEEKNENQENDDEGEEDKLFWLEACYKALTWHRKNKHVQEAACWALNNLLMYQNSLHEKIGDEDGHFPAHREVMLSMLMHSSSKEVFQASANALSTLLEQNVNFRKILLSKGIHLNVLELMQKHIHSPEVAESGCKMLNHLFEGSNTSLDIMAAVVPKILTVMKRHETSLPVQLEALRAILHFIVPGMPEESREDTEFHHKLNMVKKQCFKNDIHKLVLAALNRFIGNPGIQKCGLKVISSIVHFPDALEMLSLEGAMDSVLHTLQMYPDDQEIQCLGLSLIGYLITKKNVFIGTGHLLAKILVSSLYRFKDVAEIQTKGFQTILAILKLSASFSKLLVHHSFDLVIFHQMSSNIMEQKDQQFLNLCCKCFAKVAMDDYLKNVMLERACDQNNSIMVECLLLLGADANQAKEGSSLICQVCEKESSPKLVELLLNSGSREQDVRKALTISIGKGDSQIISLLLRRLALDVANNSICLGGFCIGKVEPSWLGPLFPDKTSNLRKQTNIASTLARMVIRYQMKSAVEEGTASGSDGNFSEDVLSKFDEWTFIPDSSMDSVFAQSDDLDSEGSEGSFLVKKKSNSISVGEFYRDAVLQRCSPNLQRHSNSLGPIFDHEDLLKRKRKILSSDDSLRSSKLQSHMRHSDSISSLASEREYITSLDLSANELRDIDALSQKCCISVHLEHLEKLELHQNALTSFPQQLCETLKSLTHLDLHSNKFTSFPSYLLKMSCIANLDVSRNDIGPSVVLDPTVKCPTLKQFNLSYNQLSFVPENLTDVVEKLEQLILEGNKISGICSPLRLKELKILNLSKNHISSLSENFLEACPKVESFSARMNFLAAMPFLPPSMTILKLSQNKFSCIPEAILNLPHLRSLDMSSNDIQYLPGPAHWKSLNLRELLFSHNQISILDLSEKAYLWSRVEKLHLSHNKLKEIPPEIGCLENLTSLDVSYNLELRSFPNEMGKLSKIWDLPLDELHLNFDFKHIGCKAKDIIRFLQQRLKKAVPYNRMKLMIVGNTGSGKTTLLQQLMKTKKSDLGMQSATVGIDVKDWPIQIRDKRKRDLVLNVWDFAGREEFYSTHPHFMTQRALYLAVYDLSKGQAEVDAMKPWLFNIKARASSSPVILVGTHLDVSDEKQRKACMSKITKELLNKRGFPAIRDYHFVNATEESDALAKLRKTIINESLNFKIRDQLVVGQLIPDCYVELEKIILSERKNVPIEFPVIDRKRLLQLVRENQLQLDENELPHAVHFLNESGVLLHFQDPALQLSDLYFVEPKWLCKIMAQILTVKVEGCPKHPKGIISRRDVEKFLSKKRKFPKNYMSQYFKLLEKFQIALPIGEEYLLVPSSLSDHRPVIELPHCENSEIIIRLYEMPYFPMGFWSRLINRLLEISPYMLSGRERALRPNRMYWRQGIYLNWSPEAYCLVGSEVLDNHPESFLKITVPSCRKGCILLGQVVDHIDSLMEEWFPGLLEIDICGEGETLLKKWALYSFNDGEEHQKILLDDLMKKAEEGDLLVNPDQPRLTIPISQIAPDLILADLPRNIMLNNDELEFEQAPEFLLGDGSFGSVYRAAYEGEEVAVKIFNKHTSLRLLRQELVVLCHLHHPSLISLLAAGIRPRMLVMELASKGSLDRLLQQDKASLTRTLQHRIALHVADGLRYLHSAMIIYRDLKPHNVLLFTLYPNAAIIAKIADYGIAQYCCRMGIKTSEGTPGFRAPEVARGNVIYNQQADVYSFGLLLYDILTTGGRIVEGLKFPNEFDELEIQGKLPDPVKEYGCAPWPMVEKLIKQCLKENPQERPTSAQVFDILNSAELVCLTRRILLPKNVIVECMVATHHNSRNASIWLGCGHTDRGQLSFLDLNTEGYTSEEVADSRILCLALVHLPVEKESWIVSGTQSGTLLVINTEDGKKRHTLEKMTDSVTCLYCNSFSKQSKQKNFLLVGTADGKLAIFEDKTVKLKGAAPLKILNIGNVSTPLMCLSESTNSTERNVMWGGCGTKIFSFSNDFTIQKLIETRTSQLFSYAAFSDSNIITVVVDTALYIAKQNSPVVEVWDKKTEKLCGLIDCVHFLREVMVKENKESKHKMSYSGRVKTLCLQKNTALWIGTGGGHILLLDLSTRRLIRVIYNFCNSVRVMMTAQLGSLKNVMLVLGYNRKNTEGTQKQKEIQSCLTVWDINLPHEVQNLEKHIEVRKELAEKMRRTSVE
T27 sequence (P11309 whole entry): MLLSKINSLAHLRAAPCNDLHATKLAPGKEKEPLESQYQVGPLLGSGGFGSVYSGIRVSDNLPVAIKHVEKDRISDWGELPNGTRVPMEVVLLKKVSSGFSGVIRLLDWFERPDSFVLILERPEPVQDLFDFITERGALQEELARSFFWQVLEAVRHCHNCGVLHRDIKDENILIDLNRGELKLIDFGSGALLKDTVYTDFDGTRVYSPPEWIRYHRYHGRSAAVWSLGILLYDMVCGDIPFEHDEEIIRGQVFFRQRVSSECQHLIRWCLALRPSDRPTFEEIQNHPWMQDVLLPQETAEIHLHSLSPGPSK
T12 sequence (P28482 whole entry): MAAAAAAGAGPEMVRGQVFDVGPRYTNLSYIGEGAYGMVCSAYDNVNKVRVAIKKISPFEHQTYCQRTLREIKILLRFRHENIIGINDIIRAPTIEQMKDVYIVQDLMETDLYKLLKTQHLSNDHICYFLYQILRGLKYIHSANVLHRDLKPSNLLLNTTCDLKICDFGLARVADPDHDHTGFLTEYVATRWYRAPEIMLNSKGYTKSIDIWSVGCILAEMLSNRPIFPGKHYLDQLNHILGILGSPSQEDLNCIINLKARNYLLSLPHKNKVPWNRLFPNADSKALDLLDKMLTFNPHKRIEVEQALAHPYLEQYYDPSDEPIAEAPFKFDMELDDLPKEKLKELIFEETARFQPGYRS

Cc1ccc(NC(=O)c2ccc(CN3CCN(C)CC3)c(C(F)(F)F)c2)cc1-c1cnc2sc(N)nc2c1 [6r]
inhibition at 1 µM (ABL2/ARG): 87.2%
inhibition at 1 µM (Aurora A): 0%
inhibition at 1 µM (BMPR2): 20.6%
inhibition at 1 µM (CAMK2d): 0%
inhibition at 1 µM (CDK1/cyclin B): 0%
inhibition at 1 µM (CDK16/cyclin Y (PCTAIRE)): 0.8%
inhibition at 1 µM (EPHA2): 77.4%
inhibition at 1 µM (EPHA3): 41.1%
inhibition at 1 µM (EPHA5): 78.5%
inhibition at 1 µM (EPHA6): 39.9%
inhibition at 1 µM (EPHB4): 27.3%
inhibition at 1 µM (ERK2/MAPK1): 13.5%
inhibition at 1 µM (ERN1/IRE1): 8%
inhibition at 1 µM (FLT1/VEGFR1): 63.7%
inhibition at 1 µM (FMS): 99%
inhibition at 1 µM (GRK6): 0%
inhibition at 1 µM (HIPK3): 0.2%
inhibition at 1 µM (HIPK4): 8.7%
inhibition at 1 µM (KSR2): 0%
inhibition at 1 µM (LIMK1): 87.2%
inhibition at 1 µM (LRRK2): 5.1%
inhibition at 1 µM (MNK2): 0%
inhibition at 1 µM (MST3/STK24): 12.5%
inhibition at 1 µM (MUSK): 10.8%
inhibition at 1 µM (PAK1): 6.9%
inhibition at 1 µM (PASK): 4.6%
inhibition at 1 µM (PIM1): 13.6%
inhibition at 1 µM (PKCg): 0.7%
inhibition at 1 µM (PKN3/PRK3): 8.6%
inhibition at 1 µM (PRKX): 12.8%
inhibition at 1 µM (RET): 99.4%
inhibition at 1 µM (RIPK4): 4.8%
inhibition at 1 µM (SIK2): 5.6%
inhibition at 1 µM (SNRK): 0%
inhibition at 1 µM (SSTK/TSSK6): 0%
inhibition at 1 µM (SYK): 3.2%
inhibition at 1 µM (TGFBR2): 0%
inhibition at 1 µM (TLK2): 0%
inhibition at 1 µM (TYK2): 7.8%
inhibition at 1 µM (ULK1): 3.7%
inhibition at 1 µM (ULK3): 7.2%
inhibition at 1 µM (YES/YES1): 77%
inhibition at 1 µM (ZIPK/DAPK3): 6.7%
